Data on seven compounds can be found in PMC2846716 (Journal of medicinal chemistry, 2010).

Data set [1] has as its system CF-1 mice. Briefly: 6 Hz corneal stimulation seizure test. It counts as in vivo, mouse. The following applies: 4 mg/kg i.p.; for Primary Screening at 4 mg/kg (6 Hz, 32 mA), mice protected / tested, 15 min: challenged 15 min after administration; for Primary Screening at 4 mg/kg (6 Hz, 32 mA), mice protected / tested, 30 min: challenged 30 min after administration; for Primary Screening at 4 mg/kg (6 Hz, 32 mA), mice protected / tested, 60 min: challenged 60 min after administration; for Primary Screening at 4 mg/kg (6 Hz, 32 mA), mice protected / tested, 120 min: challenged 120 min after administration; for Primary Screening at 4 mg/kg (6 Hz, 32 mA), mice protected / tested, 240 min: challenged 240 min after administration.

The nature of data set [2]: LogD by HPLC capacity factor. It counts as physicochemical. As to conditions: RP-HPLC, Vydac diphenyl column (capacity factor k').
Data set [3] has as its target T1, hGalR2 (Homo sapiens, UniProt O43603).
T1 sequence (O43603 1-387): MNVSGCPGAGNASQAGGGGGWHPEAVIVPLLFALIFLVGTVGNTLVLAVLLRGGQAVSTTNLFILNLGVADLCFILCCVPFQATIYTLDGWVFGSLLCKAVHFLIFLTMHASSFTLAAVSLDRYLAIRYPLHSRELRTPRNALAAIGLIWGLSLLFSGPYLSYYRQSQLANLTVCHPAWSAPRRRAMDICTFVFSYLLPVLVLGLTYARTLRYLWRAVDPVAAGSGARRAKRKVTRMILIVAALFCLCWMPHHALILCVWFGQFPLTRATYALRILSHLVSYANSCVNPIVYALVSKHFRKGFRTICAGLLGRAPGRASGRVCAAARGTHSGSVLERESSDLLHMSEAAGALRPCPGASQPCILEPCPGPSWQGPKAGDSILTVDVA
The data set is classed as binding. As to conditions: relative to [N-Me, des-Sar]Gal-B2.

The subject of data set [4] is GalR3. The following applies: binding; ref [18]; cited from earlier work.
For data set [5] the following is noted: in vitro stability in rat serum; ref [5], [7]; cited from earlier work.
Data set [6] can be described thus: Stability in 25% rat serum. The data set is classed as in vitro ADME. The following applies: 25% rat serum at 37° C, 0.1M Tris-HCl pH 7.5, 20 μM peptide, up to 8 hours, HPLC.
The subject of data set [7] is CF-1 mice. As to conditions: after i.p. administration; ref [5]; cited from earlier work.

Where a SMILES comes first, the peptide text is derived from it. [ ]: non-standard residue; d: D form. The star is where a group is joined. NMeW = CN[C@@H](Cc1c[nH]c2ccccc12)C(=O)O; Palmitoyl = CCCCCCCCCCCCCCCC(=O)*

As usually defined, the chromatographic logD is a lipophilicity value derived from retention on a column. The low end stands for lower lipophilicity, the high end for higher lipophilicity. `CCCCCCCCCCCCCCCC(=O)NCCCC[C@H](NC(=O)[C@H](CCCCN)NC(=O)[C@H](CCCCN)NC(=O)[C@@H]1CCCN1C(=O)CNC(=O)[C@H](CC(C)C)NC(=O)[C@H](CC(C)C)NC(=O)[C@H](Cc1ccc(O)cc1)NC(=O)CNC(=O)[C@H](C)NC(=O)[C@H](CO)NC(=O)[C@H](CC(N)=O)NC(=O)[C@H](CC(C)C)NC(=O)[C@@H](NC(=O)[C@H](Cc1c[nH]c2ccccc12)NC)[C@@H](C)O)C(=O)N[C@@H](CCCCN)C(N)=O` [[N-Me, des-Sar]Gal-B2] (H-[NMeW]TLNSAGYLLGPKKK(Palmitoyl)K-NH2): in data set [1], the “Primary Screening at 4 mg/kg (6 Hz, 32 mA), mice protected / tested, 15 min” value was 0/4; the “Primary Screening at 4 mg/kg (6 Hz, 32 mA), mice protected / tested, 30 min” value is 3/4; the “Primary Screening at 4 mg/kg (6 Hz, 32 mA), mice protected / tested, 60 min” value is listed as 3/4; the “Primary Screening at 4 mg/kg (6 Hz, 32 mA), mice protected / tested, 120 min” value is recorded as 1/4. In data set [1], the “Primary Screening at 4 mg/kg (6 Hz, 32 mA), mice protected / tested, 240 min” value is reported as 0/3. The compound further registered a chromatographic logD in data set [2] of 1.29 ± 0.01.

For `CCCCCCCCCCCCCCCC(=O)NCCCC[C@H](NC(=O)[C@H](CCCCN)NC(=O)[C@H](CCCCN)NC(=O)[C@@H]1CCCN1C(=O)CNC(=O)[C@H](CC(C)C)NC(=O)[C@H](CC(C)C)NC(=O)[C@H](Cc1ccc(O)cc1)NC(=O)CNC(=O)[C@H](C)NC(=O)[C@H](CO)NC(=O)[C@H](CC(N)=O)NC(=O)[C@H](CC(C)C)NC(=O)[C@@H](NC(=O)[C@@H](N)Cc1c[nH]c2ccccc12)[C@@H](C)O)C(=O)N[C@@H](CCCCN)C(N)=O` [Gal-B5] (H-WTLNSAGYLLGPKKK(Palmitoyl)K-NH2), in data set [1], the “Primary Screening at 4 mg/kg (6 Hz, 32 mA), mice protected / tested, 15 min” value is reported as 2/4; the “Primary Screening at 4 mg/kg (6 Hz, 32 mA), mice protected / tested, 30 min” value is given as 1/4; the “Primary Screening at 4 mg/kg (6 Hz, 32 mA), mice protected / tested, 60 min” value was 2/4; the “Primary Screening at 4 mg/kg (6 Hz, 32 mA), mice protected / tested, 120 min” value is recorded as 2/4. The “Primary Screening at 4 mg/kg (6 Hz, 32 mA), mice protected / tested, 240 min” value in data set [1] was 0/3. In data set [3], the “reduction of binding toward GalR2 on removal of N-terminal methyl group” value is 2 fold. Also, the chromatographic logD in data set [2] came to 1.22 ± 0.02.

For the compound WTLNSAGYLL-CONH2 [Gal(2-11)], the “preference towards GalR2 above GalR3” value in data set [4] is reported as 12 fold.

For the compound `CCCCCCCCCCCCCCCC(=O)NCCCC[C@H](NC(=O)[C@H](CCCCN)NC(=O)[C@H](CCCCN)NC(=O)[C@@H]1CCCN1C(=O)CNC(=O)[C@H](CC(C)C)NC(=O)[C@H](CC(C)C)NC(=O)[C@H](Cc1ccc(O)cc1)NC(=O)CNC(=O)[C@H](C)NC(=O)[C@H](CO)NC(=O)[C@H](CC(N)=O)NC(=O)[C@H](CC(C)C)NC(=O)[C@@H](NC(=O)[C@H](Cc1c[nH]c2ccccc12)NC(C)=O)[C@@H](C)O)C(=O)N[C@@H](CCCCN)C(N)=O` [[N-Ac, des-Sar]Gal-B2] (Ac-WTLNSAGYLLGPKKK(Palmitoyl)K-NH2), in data set [2], the chromatographic logD was found to be 1.28 ± 0.02.

For the compound `CCCCCCCCCCCCCCCC(=O)NCCCC[C@H](NC(=O)[C@H](CCCCN)NC(=O)[C@H](CCCCN)NC(=O)[C@@H]1CCCN1C(=O)CNC(=O)[C@H](CC(C)C)NC(=O)[C@H](CC(C)C)NC(=O)[C@H](Cc1ccc(O)cc1)NC(=O)CNC(=O)[C@H](C)NC(=O)[C@H](CO)NC(=O)[C@H](CC(N)=O)NC(=O)[C@H](CC(C)C)NC(=O)[C@@H](NC(=O)[C@H](Cc1c[nH]c2ccccc12)NC(=O)CNC)[C@@H](C)O)C(=O)N[C@@H](CCCCN)C(N)=O` [Gal-B2], the “serum half-life in rat serum” value in data set [5] was 9.4 h. Further, in data set [1], the “Primary Screening at 4 mg/kg (6 Hz, 32 mA), mice protected / tested, 15 min” value is 3/4; the “Primary Screening at 4 mg/kg (6 Hz, 32 mA), mice protected / tested, 30 min” value is reported as 4/4; the “Primary Screening at 4 mg/kg (6 Hz, 32 mA), mice protected / tested, 60 min” value is listed as 4/4; the “Primary Screening at 4 mg/kg (6 Hz, 32 mA), mice protected / tested, 120 min” value is recorded as 4/4. Also, the “Primary Screening at 4 mg/kg (6 Hz, 32 mA), mice protected / tested, 240 min” value in data set [1] is given as 0/4. Moreover, in data set [6], the “half-life in 25% rat serum” value was determined as 9.4 h. For the same compound, the “ED50, 6 Hz corneal stimulation mouse model” value in data set [7] is listed as 0.8 mg/kg.

For `CCCCCCCCCCCCCCCC(=O)NCCCC[C@H](NC(=O)[C@H](CCCCN)NC(=O)[C@H](CCCCN)NC(=O)[C@@H]1CCCN1C(=O)CNC(=O)[C@H](CC(C)C)NC(=O)[C@H](CC(C)C)NC(=O)[C@H](Cc1ccc(O)cc1)NC(=O)CNC(=O)[C@H](C)NC(=O)[C@H](CO)NC(=O)[C@H](CC(N)=O)NC(=O)[C@H](CC(C)C)NC(=O)[C@@H](NC(=O)[C@H](Cc1c[nH]c2ccccc12)NC(=O)[C@H](C)N)[C@@H](C)O)C(=O)N[C@@H](CCCCN)C(N)=O` [[Sar1Ala]Gal-B2] (H-AWTLNSAGYLLGPKKK(Palmitoyl)K-NH2), in data set [1], the “Primary Screening at 4 mg/kg (6 Hz, 32 mA), mice protected / tested, 15 min” value was 4/4; the “Primary Screening at 4 mg/kg (6 Hz, 32 mA), mice protected / tested, 30 min” value is 4/4; the “Primary Screening at 4 mg/kg (6 Hz, 32 mA), mice protected / tested, 60 min” value is 4/4; the “Primary Screening at 4 mg/kg (6 Hz, 32 mA), mice protected / tested, 120 min” value is recorded as 1/4. Also, in data set [1], the “Primary Screening at 4 mg/kg (6 Hz, 32 mA), mice protected / tested, 240 min” value was 0/4. Moreover, the chromatographic logD in data set [2] is 1.28 ± 0.01.

As to `CCCCCCCCCCCCCCCC(=O)NCCCC[C@H](NC(=O)[C@H](CCCCN)NC(=O)[C@H](CCCCN)NC(=O)[C@@H]1CCCN1C(=O)CNC(=O)[C@H](CC(C)C)NC(=O)[C@H](CC(C)C)NC(=O)[C@H](Cc1ccc(O)cc1)NC(=O)CNC(=O)[C@H](C)NC(=O)[C@H](CO)NC(=O)[C@H](CC(N)=O)NC(=O)[C@H](CC(C)C)NC(=O)[C@@H](NC(=O)[C@H](Cc1c[nH]c2ccccc12)NC(=O)CN)[C@@H](C)O)C(=O)N[C@@H](CCCCN)C(N)=O` [[Sar1Gly]Gal-B2], in data set [1], the “Primary Screening at 4 mg/kg (6 Hz, 32 mA), mice protected / tested, 15 min” value was 1/4; the “Primary Screening at 4 mg/kg (6 Hz, 32 mA), mice protected / tested, 30 min” value is on record as 3/4; the “Primary Screening at 4 mg/kg (6 Hz, 32 mA), mice protected / tested, 60 min” value is on record as 3/4; the “Primary Screening at 4 mg/kg (6 Hz, 32 mA), mice protected / tested, 120 min” value is reported as 0/4. Also, the “Primary Screening at 4 mg/kg (6 Hz, 32 mA), mice protected / tested, 240 min” value in data set [1] is given as 0/3. This compound had a chromatographic logD in data set [2] of 1.3 ± 0.04.
